Source: patent US20110160053A1, “Synergistic Combination of Prothioconazole and Metominostrobin” (Bayer CropScience AG, priority 2009, published 2011)

Key:
Format in all cases: in vivo
Phakopsora pachyrhizi = assay: Phakopsora test (soybeans) / protective; conditions: evaluated 11 days after inoculation
Experimental: To produce a suitable preparation of active compound, 1 part by weight of active compound or active compound combination is mixed with the stated amounts of solvent and emulsifier, and the concentrate is diluted with water to the desired concentration.
To test for protective activity, young plants are sprayed with the preparation of active compound or active compound combination at the stated rate of application. After the spray coating has dried on, the plants are placed in a greenhouse at a temperature of approximately 23° C. and a relative atmospheric humidity of approximately 70%.
1 day after spraying, the plants are inoculated with an aqueous spore suspension of the causal agent of soybean rust (Phakopsora pachyrhizi). The plants are then placed in a greenhouse at approximately 20° C. and a relative atmospheric humidity of approximately 80%. The test is evaluated 11 days after the inoculation. 0% means an efficacy which corresponds to that of the control, while an efficacy of 100% means that no disease is observed.

[1] = test system: Blumeria graminis fsp. tritici; assay: Blumeria test (wheat) / preventive; conditions: rate of application 62.5 ppm, evaluated 7 days after inoculation
Experimental: [table] To produce a suitable preparation of active compound, 1 part by weight of active compound or active compound combination is mixed with the stated amounts of solvent and emulsifier, and the concentrate is diluted with water to the desired concentration. To test for preventive activity, young plants are sprayed with the preparation of active compound or active compound combination at the stated rate of application. After the spray coating has been dried, the plants are dusted with spores of Blumeria graminis fsp. tritici. The plants are placed in the greenhouse at a temperature of approximately 18° C. and a relative atmospheric humidity of approximately 80% to promote the development of mildew pustules. The test is evaluated 7 days after the inoculation. 0% means an efficacy which corresponds to that of the control, while an efficacy of 100% means that no disease is observed.

Sphaerotheca fuliginea = assay: Sphaerotheca test (cucumbers) / protective; conditions: rate of application 2 ppm, evaluated 7 days after inoculation
Experimental: [table] To produce a suitable preparation of active compound, 1 part by weight of active compound is mixed with the stated amounts of solvent and emulsifier, and the concentrate is diluted with water to the desired concentration. To test for protect activity, young plants are sprayed with the preparation of active compound at the stated rate of application. After the spray coating has dried on, the plants are inoculated with an aqueous spore suspension of Sphaerotheca fuliginea. The plants are then placed in a greenhouse at approximately 23° C. and a relative atmospheric humidity of approximately 70%. The test is evaluated 7 days after the inoculation. 0% means an efficacy which corresponds to that of the control, while an efficacy of 100% means that no disease is observed.

SMILES | Efficacy in % (Phakopsora pachyrhizi; rate of application 0.1 ppm) [%] | Efficacy in % (Phakopsora pachyrhizi; rate of application 0.5 ppm) [%] | Efficacy in % [1] [%] | Efficacy in % (Sphaerotheca fuliginea) [%] | Efficacy in % (Phakopsora pachyrhizi; rate of application 2.5 ppm) [%] | Efficacy in % (Phakopsora pachyrhizi; rate of application 5 ppm) [%]
OC(Cc1ccccc1Cl)(Cn1nc[nH]c1=S)C1(Cl)CC1 (centres unmarked) [Prothioconazole, 2-[2-(1-chlorocyclopropyl)-3-(2-chlorophenyl)-2-hydroxypropyl]-2,4-dihydro-[1,2,4]-triazole-3-thione] | 20 | 50 | 13 | 65 |  | 
CNC(=O)/C(=N/OC)c1ccccc1Oc1ccccc1 [Metominostrobin, (E)-α-(methoxyimino)-N-methyl-2-phenoxy-benzeneacetamide] |  |  | 50 | 0 | 0 | 20
